Measurements taken from patent publication US4065575A, “3-Aminomethyl derivatives of 4-chromanone” (Joullie International, priority 1975, dated 1977).
Entries after “also recorded” stand apart in the source; their conditions may differ. Structures can show the parent of a compound that is named as a salt.

Columns and labels:
[1] = Acute toxicity in mice (LD 50); format: in vivo; details: mouse, in vivo, mice, 15 days observation
Protocol: (§1) The study is carried out on batches of 5 Swiss female mice of the NMRI Han. strain. The products are administered either intravenously (into the caudal vein) in solution in a 9 g..permill. sodium chloride solution, or orally (probang) in suspension in a 10% solution of gum arabic.
(§2) The animals are observed for the 15 days following the administration of the products.
(§3) The LD 50 values are calculated by the method of Karber and Behrens (Arch. Exp. Pathol. Pharm. 177, 1935, page 379).

[2] = tested on: isolated auricle of a rabbit; assay: Peripheral vasomotoricity, isolated and perfused auricle of a rabbit; details: for activation at 0.0001 mg / activation at 0.001 mg / activation at 0.01 mg / activation at 0.1 mg: Oryctolagus cuniculus, read-out: Maximum variations in the flow rate; for activation at 0.0001 mg: dose 0.1 μg.; for activation at 0.001 mg: dose 1 μg.; for activation at 0.01 mg: dose 10 μg.; for activation at 0.1 mg: dose 100 μg.; for duration of the effects / of the action: at the highest doses; for peripheral vasodilatory action: in words
Protocol: The flow rate of the liquid issuing from the veins is recorded by electronic contact on a polygraph. The products to be studied are injected at increasing doses into the perfusion tube and their actions are compared to that of isoxsuprine used as the reference substance.
The results, collected in Table No. III, are expressed in the maximum percentage increase of the flow rate at the various doses used.

[3] = Cardiovascular action in dogs; format: in vivo, male Beagle dogs
Protocol: Male Beagle dogs weighing 9 to 12 kg. were anaesthetised by intrasaphenous injection of a 2% solution of chloralose in physiological solution, at a dose of 100 mg./kg.
The anaesthesia is maintained by slow perfusion of 5% pentobarbital (1.2 ml./hour).
The animals are tracheotomised and placed under assisted respiration by means of a Bird respirator. Their oxygenation and their acid-base equilibrium are controlled by determination of the pH, the pCO2 and the pO2 on blood samples taken from a collateral of the brachial artery (pH/gas analyser for blood, IL model 213/227).
The different parameters are recorded on a polygraph.

mice = assay: Acute toxicity in mice (LD 50); format: in vivo; details: intravenous; in words
Protocol: as §1, §2, §3

[4] = tested on: hypertensive effects of electrical stimulation, adrenaline and noradrenaline; assay: α-Sympatholytic effects in amyeliated rats; format: in vivo; details: for % variation of the hypertensive effects obtained with adrenaline: adrenaline 1.25 to 2.5 μg./kg.; for % variation of the hypertensive effects obtained with noradrenaline: noradrenaline 1.25 to 2.5 μg./kg.
Source text: The α-sympatholytic effects of LJ 1052 and LJ 1053 are compared with those of isoxsuprine in amyeliated rats which have been prepared by a method derived from those of Shipley and Tilden (Proc. soc. Exp. Biol. Med. 1947, 64, 453-455) and of Gillespie and Muir (Br. J. Pharmac. Chemother. 1967, 30, 78-87).
The effects on the blood pressure of electrical stimulation of the thoracolumbar sympathic nerve (rectangular signals = voltage 20 to 40 volts; width 2 m. sec; frequency 10 secs.; duration 5 to 10 secs.) and of injections of adrenaline (1.25 to 2.5 μg./kg.) and of noradrenaline (1.25 to 2.5 μg./kg.) are determined before and after injection of the products tested.

[5] = 0.5 mg./kg. i.v. (1/50 LD 50), then
[6] = 0.6 mg./kg. i.v. (1/50 LD 50), first phase
[7] = 0.6 mg./kg. i.v. (1/50 LD 50), then
[8] = dose 50 g./kg. (so in the source)
[9] = dose 100 g./kg. (so in the source)
[10] = 0.04 mg./kg. i.v. (1/1,000 LD 50)
[11] = 0.04 mg./kg. i.v. (1/1,000 LD 50), first or only phase
[12] = 0.04 mg./kg. i.v. (1/1,000 LD 50), then

## CCCCNCC1COc2ccccc2C1=O (stereo not drawn) [LJ 1049, 3-(n-Butylaminomethyl)-4-chromanone hydrochloride]
[1]; intravenous administration
  LD50 at 360 h: 24 mg/kg
[1]; oral administration
  LD50 at 360 h: 262 mg/kg
[2]
  activation at 0.0001 mg: 36%
  activation at 0.001 mg: 36%
  activation at 0.01 mg: 115%
  activation at 0.1 mg: 138%
  duration of the effects / of the action: ≥ 30 min
  peripheral vasodilatory action: great
[3]; 0.5 mg./kg. i.v. (1/50 LD 50)
  FF (mean flow rate of the femoral artery), maximum per cent variation: +34%
  FF, duration of action: 2 min
  Hb (heart beat), maximum per cent variation: +21%
  Hb, duration of action: 40 min
  LVP (left ventricular pressure), maximum per cent variation: -19%
  LVP, duration of action: 50 min
  Mean AP, duration of action: 10 min
  Mean AP, maximum per cent variation: -15%
[3]; 0.5 mg./kg. i.v. (1/50 LD 50), first phase
  dLVP/dt, maximum per cent variation: -10%
[3]; [5]
  dLVP/dt, duration of action, second phase ("then"): 10 min
  dLVP/dt, maximum per cent variation, second phase ("then"): +20%

## COCCCNCC1COc2ccccc2C1=O (stereo not drawn) [LJ 1051, 3-(3-Methoxy-n-propylaminomethyl)-4-chromanone hydrochloride]
[1]; intravenous administration
  LD50 at 360 h: 33 mg/kg
[1]; oral administration
  LD50 at 360 h: 475 mg/kg
[2]
  activation at 0.0001 mg: 0%
  activation at 0.001 mg: 36%
  activation at 0.01 mg: 100%
  duration of the effects / of the action: ≥ 30 min
  peripheral vasodilatory action: great
[3]; 0.6 mg./kg. i.v. (1/50 LD 50)
  LVP (left ventricular pressure), maximum per cent variation: -30%
  LVP, duration of action: > 50 min
  Mean AP, duration of action: > 50 min
  Mean AP, maximum per cent variation: -21%
  dLVP/dt, duration of action: > 50 min
  dLVP/dt, maximum per cent variation: -60%
[3]; [6]
  Hb (heart beat), maximum per cent variation: +20%
  Hb, duration of action: 3 min
[3]; [7]
  Hb, duration of action, second phase ("then"): 40 min
  Hb, maximum per cent variation, second phase ("then"): -16%

## COCCCCNCC1COc2ccccc2C1=O (stereo not drawn) [LJ 1053, 3-(4-Methoxy-n-butylaminomethyl)-4-chromanone hydrochloride]
[1]; intravenous administration
  LD50 at 360 h: 38 mg/kg
[1]; oral administration
  LD50 at 360 h: 285 mg/kg
mice
  intravenous LD 50 in mice (comparison of three products): practically identical
[2]
  activation at 0.0001 mg: 23%
  activation at 0.001 mg: 92%
  activation at 0.01 mg: 133%
  activation at 0.1 mg: 183%
  duration of the effects / of the action: ≥ 30 min
[2]; hydrochloride
  peripheral vasodilatory action: great; also recorded: as active as isoxsuprine
[4]; [8]
  % variation of the hypertensive effects obtained with electrical stimulation: -11%
  % variation of the hypertensive effects obtained with adrenaline: -18%
  % variation of the hypertensive effects obtained with noradrenaline: -12%
[4]; [9]
  % variation of the hypertensive effects obtained with electrical stimulation: -55%
  % variation of the hypertensive effects obtained with adrenaline: -47%
  % variation of the hypertensive effects obtained with noradrenaline: -41%
[3]; [10]
  Diastolic AP, duration of action: 5 min
  Diastolic AP, maximum per cent variation: -60%
  FF (mean flow rate of the femoral artery), maximum per cent variation: +104%
  FF, duration of action: 3 min
  Hb (heart beat), maximum per cent variation: +23%
  Hb, duration of action: > 30 min
  LVP, duration of action: > 10 min
  Mean AP, duration of action: 5 min
  Mean AP, maximum per cent variation: -45%
  Systolic AP, duration of action: 15 min
  Systolic AP, maximum per cent variation: +23%
[3]; [11]
  LVP (left ventricular pressure), maximum per cent variation: -17%
  dLVP/dt, maximum per cent variation: -12%
[3]; [12]
  dLVP/dt, duration of action, second phase ("then"): > 10 min
  dLVP/dt, maximum per cent variation, second phase ("then"): +25%
